Experiments:
P-388 leukemia cells = assay: Antitumor activity: P-388 leukemia cells inoculated intraperitoneally, drug administered intravenously, BDF1 mice; type: in vivo; details: BDF1 mice, P-388 i.p.; for response vs control in vivo at 80 mg/kg: dose f: 80 mg/kg × 3, i.v. on days 1, 5 and 9; for response vs control in vivo at 50 mg/kg: dose d: 50 mg/kg × 3, i.v. on days 1, 5 and 9; for response vs control in vivo at 20 mg/kg: dose b: 20 mg/kg × 3, i.v. on days 1, 5 and 9; for T/C (%) of MST / response vs control in vivo at 40 mg/kg: dose c: 40 mg/kg × 3, i.v. on days 1, 5 and 9
Procedure, shortened: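 Drug dosing was intravenous on the first, fifth and ninth days after intraperitoneal inoculation of P-388 leukemia cells (1×10^6 per mouse) into BDF1 mice. Vehicles were physiological saline alone, or saline with small amounts of sodium carboxymethyl cellulose or Tween-80.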

[1] = Acute toxicity, intravenous (once), ddY mice; type: in vivo; details: mouse, in vivo, iv, formulated per Preparation Example
Source text: In Table 7 are shown acute toxicity values (LD50, mg/kg) in ddY mice in the case of intravenously administering (once) each of the compounds of this invention in the form of preparations shown in the Preparation Examples shown in Table 7.

[2] = Mus musculus, P388, iv, read-out: T/C (%) of MST

Structure (SMILES)	response vs control in vivo at 80 mg/kg (P-388 leukemia cells; [2]) [%]	LD50 [1] [mg/kg]	response vs control in vivo at 40 mg/kg (P-388 leukemia cells; [2]) [%]	further results
COC1C(O)C(C)OC(OC2C(Oc3cccc4c(OC(=O)C(C)CNC(=O)C(F)(F)F)c5c(=O)oc6ccc(C)c7c(=O)oc(c34)c5c67)OC(C)C3OC(C)(C)OC32)C1O (stereo not drawn) [compound 85]	157	≥ 100		
COC1C(O)C(C)OC(OC2C(Oc3cccc4c(OC(=O)CN(C)C(=O)C(F)(F)F)c5c(=O)oc6ccc(C)c7c(=O)oc(c34)c5c67)OC(C)C3OC(C)(C)OC32)C1O (stereo not drawn) [compound 86]	136	≥ 100		
COC1C(O)C(C)OC(OC2C(Oc3cccc4c(OC(=O)CNC(=O)c5ccccc5)c5c(=O)oc6ccc(C)c7c(=O)oc(c34)c5c67)OC(C)C3OC(C)(C)OC32)C1O (stereo not drawn) [compound 88]		≥ 100		response vs control in vivo at 50 mg/kg (P-388 leukemia cells; [2]): 157%
COC1C(O)C(C)OC(OC2C(Oc3cccc4c(OC(=O)CCNC=O)c5c(=O)oc6ccc(C)c7c(=O)oc(c34)c5c67)OC(C)C3OC(c4cccc(Cl)c4)OC32)C1O (stereo not drawn) [compound 90]		≥ 30		response vs control in vivo at 20 mg/kg (P-388 leukemia cells; [2]): 162%
COC1C(O)C(C)OC(OC2C(Oc3cccc4c(OC(=O)CCCNC(=O)C(F)(F)F)c5c(=O)oc6ccc(C)c7c(=O)oc(c34)c5c67)OC(C)C3OC(c4ccc(F)cc4)OC32)C1O (stereo not drawn) [compound 91]		≥ 40		T/C (%) of MST (P-388 leukemia cells): 173%
COC1C(O)C(C)OC(OC2C(Oc3cccc4c(OC(=O)CCNC=O)c5c(=O)oc6ccc(C)c7c(=O)oc(c34)c5c67)OC(C)C3OC(c4ccc(F)cc4)OC32)C1O (stereo not drawn) [compound 92]		≥ 40	192	response vs control in vivo at 20 mg/kg (P-388 leukemia cells; [2]): 146%
COC1C(O)C(C)OC(OC2C(Oc3cccc4c(OC(=O)CCNC=O)c5c(=O)oc6ccc(C)c7c(=O)oc(c34)c5c67)OC(C)C3OC(c4ccc(Cl)cc4Cl)OC32)C1O (stereo not drawn) [compound 93]	165	≥ 80		
COC1C(O)C(C)OC(OC2C(Oc3cccc4c(OC(=O)CC(C)NC(=O)C(F)(F)F)c5c(=O)oc6ccc(C)c7c(=O)oc(c34)c5c67)OC(C)C3OC(c4ccccc4Cl)OC32)C1O (stereo not drawn) [compound 94]	183	≥ 80		
COc1ccc(C2OC3C(C)OC(Oc4cccc5c(OC(=O)CCNC=O)c6c(=O)oc7ccc(C)c8c(=O)oc(c45)c6c78)C(OC4OC(C)C(O)C(OC)C4O)C3O2)cc1 (stereo not drawn) [compound 95]		≥ 40	173	
COc1ccc(C2OC3C(C)OC(Oc4cccc5c(OC(=O)CCNC(=O)c6ccccc6)c6c(=O)oc7ccc(C)c8c(=O)oc(c45)c6c78)C(OC4OC(C)C(O)C(OC)C4O)C3O2)cc1 (stereo not drawn) [compound 96]		≥ 40	162	
COC1C(O)C(C)OC(OC2C(Oc3cccc4c(OC(=O)CCCCCNC(=O)C(F)(F)F)c5c(=O)oc6ccc(C)c7c(=O)oc(c34)c5c67)OC(C)C3OC(c4ccc(F)cc4)OC32)C1O (stereo not drawn) [compound 97]		≥ 30		response vs control in vivo at 20 mg/kg (P-388 leukemia cells; [2]): 156%
COC1C(O)C(C)OC(OC2C(Oc3cccc4c(OC(=O)CCCCCNC(=O)C(F)(F)F)c5c(=O)oc6ccc(C)c7c(=O)oc(c34)c5c67)OC(C)C3OC(C)(C)OC32)C1O (stereo not drawn) [compound 98]	187	≥ 100		
COC1C(O)C(C)OC(OC2C(Oc3cccc4c(OC(=O)CCCCCCCNC(=O)C(F)(F)F)c5c(=O)oc6ccc(C)c7c(=O)oc(c34)c5c67)OC(C)C3OC(C)(C)OC32)C1O (stereo not drawn) [compound 99]	136	≥ 100		
CCC1OC2C(C)OC(Oc3cccc4c(OC(=O)CCNC(=O)C(F)(F)F)c5c(=O)oc6ccc(C)c7c(=O)oc(c34)c5c67)C(OC3OC(C)C(O)C(OC)C3O)C2O1 (stereo not drawn) [compound 100]	157	≥ 180		
COC1C(O)C(C)OC(OC2C(Oc3cccc4c(OC(=O)C(Cc5c[nH]c6ccccc56)NC(=O)OCc5ccccc5)c5c(=O)oc6ccc(C)c7c(=O)oc(c34)c5c67)OC(C)C3OC(c4cccc(C(F)(F)F)c4)OC32)C1O (stereo not drawn) [compound 101]	225	≥ 80	171	
COC1C(O)C(C)OC(OC2C(Oc3cccc4c(OC(=O)C(CC[S+](C)[O-])NC(=O)OCc5ccccc5)c5c(=O)oc6ccc(C)c7c(=O)oc(c34)c5c67)OC(C)C3OC(C)(C)OC32)C1O (stereo not drawn) [compound 102]	187	≥ 100		
COC1C(O)C(C)OC(OC2C(Oc3cccc4c(OC(=O)C(NC(=O)OCc5ccccc5)C(C)C)c5c(=O)oc6ccc(C)c7c(=O)oc(c34)c5c67)OC(C)C3OC(c4ccccc4Cl)OC32)C1O (stereo not drawn) [compound 105]	216	≥ 80		

Structure (SMILES)	response vs control in vivo at 80 mg/kg (P-388 leukemia cells; [2]) [%]	LD50 [1] [mg/kg]	response vs control in vivo at 40 mg/kg (P-388 leukemia cells; [2]) [%]	further results
COC1C(O)C(C)OC(OC2C(Oc3cccc4c(OC(=O)C(NC(=O)OCc5ccccc5)C(C)C)c5c(=O)oc6ccc(C)c7c(=O)oc(c34)c5c67)OC(C)C3OC(c4ccccc4)OC32)C1O (stereo not drawn) [compound 106]		≥ 40		response vs control in vivo at 20 mg/kg (P-388 leukemia cells; [2]): 173%
COC1C(O)C(C)OC(OC2C(Oc3cccc4c(OC(=O)CCNC(=O)OCc5ccccc5)c5c(=O)oc6ccc(C)c7c(=O)oc(c34)c5c67)OC(C)C3OC(C)(C)OC32)C1O (stereo not drawn) [compound 107]	185	≥ 100	139	
COC1C(O)C(C)OC(OC2C(Oc3cccc4c(OC(=O)CNC(=O)OCc5ccccc5)c5c(=O)oc6ccc(C)c7c(=O)oc(c34)c5c67)OC(C)C3OC(C)(C)OC32)C1O (stereo not drawn) [compound 108, 6-O-(N-carbobenzyloxyglycyl)-3',4'-O-isopropylidene-chartreusin]		≥ 100		response vs control in vivo at 50 mg/kg (P-388 leukemia cells; [2]): 163%
COC1C(O)C(C)OC(OC2C(Oc3cccc4c(OC(=O)CCCNC(=O)OCc5ccccc5)c5c(=O)oc6ccc(C)c7c(=O)oc(c34)c5c67)OC(C)C3OC(C)(C)OC32)C1O (stereo not drawn) [compound 109]		≥ 100		response vs control in vivo at 60 mg/kg (P-388 leukemia cells; Mus musculus, P388, iv, dose e: 60 mg/kg × 3, i.v. on days 1, 5 and 9, read-out: T/C (%) of MST): 145%
COC1C(O)C(C)OC(OC2C(Oc3cccc4c(OC(=O)CCNC=O)c5c(=O)oc6ccc(C)c7c(=O)oc(c34)c5c67)OC(C)C3OC(c4c(F)c(F)c(F)c(F)c4F)OC32)C1O (stereo not drawn) [compound 113]		≥ 40	138	
COC1C(O)C(C)OC(OC2C(Oc3cccc4c(OC(=O)C(NC(=O)CNC(=O)CNC(=O)OCc5ccccc5)C(C)C)c5c(=O)oc6ccc(C)c7c(=O)oc(c34)c5c67)OC(C)C3OC(c4ccccc4)OC32)C1O (stereo not drawn) [compound 115]		≥ 40		response vs control in vivo at 20 mg/kg (P-388 leukemia cells; [2]): 135%
COC1C(O)C(C)OC(OC2C(Oc3cccc4c(OC(=O)CNC(=O)CNC(=O)CNC(=O)OCc5ccccc5)c5c(=O)oc6ccc(C)c7c(=O)oc(c34)c5c67)OC(C)C3OC(c4cccc(F)c4)OC32)C1O (stereo not drawn) [compound 116]		≥ 30	130	
COC1C(O)C(C)OC(OC2C(Oc3cccc4c(OC(=O)CCCCCNC(=O)OCc5ccccc5)c5c(=O)oc6ccc(C)c7c(=O)oc(c34)c5c67)OC(C)C3OC(c4ccccc4)OC32)C1O (stereo not drawn) [compound 119]		≥ 40		T/C (%) of MST (P-388 leukemia cells): 153%
COC1C(O)C(C)OC(OC2C(Oc3cccc4c(OC(=O)CCNC=O)c5c(=O)oc6ccc(C)c7c(=O)oc(c34)c5c67)OC(C)C3OC(c4cccc([N+](=O)[O-])c4)OC32)C1O (stereo not drawn) [compound 120]		≥ 40	148	
COC1C(O)C(C)OC(OC2C(Oc3cccc4c(OC(=O)C(Cc5c[nH]c6ccccc56)NC(=O)OCc5ccccc5)c5c(=O)oc6ccc(C)c7c(=O)oc(c34)c5c67)OC(C)C3OC(c4ccccc4)OC32)C1O (stereo not drawn) [compound 121]		≥ 40	146	
COC1C(O)C(C)OC(OC2C(Oc3cccc4c(OC(=O)C(Cc5ccccc5)NC(=O)OCc5ccccc5)c5c(=O)oc6ccc(C)c7c(=O)oc(c34)c5c67)OC(C)C3OC(c4ccccc4)OC32)C1O (stereo not drawn) [compound 122]		≥ 40	135	
COC1C(O)C(C)OC(OC2C(Oc3cccc4c(OC(=O)CCNC(=O)c5ccccc5)c5c(=O)oc6ccc(C)c7c(=O)oc(c34)c5c67)OC(C)C3OC(c4ccc(Br)cc4)OC32)C1O (stereo not drawn) [compound 123]		≥ 40	135	
COC1C(O)C(C)OC(OC2C(Oc3cccc4c(OC(=O)C(NC(=O)OCc5ccccc5)C(C)C)c5c(=O)oc6ccc(C)c7c(=O)oc(c34)c5c67)OC(C)C3OC(C)(C)OC32)C1O (stereo not drawn) [compound 125]		≥ 100		response vs control in vivo at 50 mg/kg (P-388 leukemia cells; [2]): 140%
COC1C(O)C(C)OC(OC2C(Oc3cccc4c(OC(=O)C(Cc5c[nH]c6ccccc56)NC(=O)OCc5ccccc5)c5c(=O)oc6ccc(C)c7c(=O)oc(c34)c5c67)OC(C)C3OC(C)(C)OC32)C1O (stereo not drawn) [compound 126]	150	≥ 100		
COC1C(O)C(C)OC(OC2C(Oc3cccc4c(OC(=O)C(Cc5ccccc5)NC(=O)OCc5ccccc5)c5c(=O)oc6ccc(C)c7c(=O)oc(c34)c5c67)OC(C)C3OC(c4ccc(Cl)cc4)OC32)C1O (stereo not drawn) [compound 127]		≥ 40		response vs control in vivo at 20 mg/kg (P-388 leukemia cells; [2]): 130%
COC1C(O)C(C)OC(OC2C(Oc3cccc4c(OC(=O)C(Cc5ccccc5)NC(=O)OCc5ccccc5)c5c(=O)oc6ccc(C)c7c(=O)oc(c34)c5c67)OC(C)C3OC(C)(C)OC32)C1O (stereo not drawn) [compound 128]		≥ 100		response vs control in vivo at 50 mg/kg (P-388 leukemia cells; [2]): 146%
